Measurements: patent US20130131033A1, “PHARMACEUTICAL COMPOSITION FOR TREATMENT OF RESPIRATORY TRACT INFECTIONS” (priority 2010, published 2013)
In brackets after ≈: the same amount, converted by molar mass.

Assays:
Type in all cases: cell-based
[1] = system: Streptococcus pyogenes (MTCC 442); test: Broth macrodilution method (MIC); details: MTCC442, individual drug alone, read-out: MIC (μg/ml) against Streptococcus pyogenes
Method: (§1) […] LABS PVT. LTD. at its pre-clinical facility based at Chennai by Study No.: AMOX-538-09. The study report was generated on 1Mar. 2010. The study was conducted as per the approved study protocol.
(§2) The test substances used were three formulations, Formulation I, Formulation II and Formulation III prepared in accordance with Example 1, Example 2 and Example 3 respectively. […] The preparations and the method of the study were as per the approved protocol.

[2] = system: Streptococcus pneumoniae (MTCC 2672); test: Broth macrodilution method (MIC); details: MTCC2672, individual drug alone, read-out: MIC (μg/ml) against Streptococcus pneumoniae
Method: as §1, §2

[3] = system: Streptococcus pyogenes (MTCC 442); test: Disc diffusion method (zone of inhibition)
Method: as §1, §2
(§3) The sensitivity of the test substances and the reference standards were interpreted as per the CLSI zone diameter interpretive standards shown in Table 3.

[4] = system: Streptococcus pneumoniae (MTCC 2672); test: Disc diffusion method (zone of inhibition)
Method: as §1, §2, §3

Structure (SMILES): CC1(C)S[C@@H]2[C@H](NC(=O)[C@H](N)c3ccc(O)cc3)C(=O)N2[C@H]1C(=O)O [Amoxycillin]
- MIC [1]: 0.031 µg/mL (≈ 0.0848 µM)
- MIC [2]: 0.063 µg/mL (≈ 0.172 µM)
- Zone Diameter Range (mm) S. pyogenes ([3]; 8 μg/disc): 32-33 mm
- Zone Diameter Range (mm) S. pyogenes ([3]; 16 μg/disc): 34-36 mm
- Zone Diameter Range (mm) S. pyogenes ([3]; 32 μg/disc): 37-39 mm
- Zone Diameter Range (mm) S. pneumoniae ([4]; 8 μg/disc): 33-36 mm
- Zone Diameter Range (mm) S. pneumoniae ([4]; 16 μg/disc): 34-36 mm
- Zone Diameter Range (mm) S. pneumoniae ([4]; 32 μg/disc): 37-38 mm
